Experimental data from BindingDB's records for patent US11440923 (2022).

The compounds below were run against T1, Induced myeloid leukemia cell differentiation protein Mcl-1 [K194A,K197A,R201A] (Homo sapiens, UniProt Q07820, K194A/K197A/R201A) (assay: Protein-Protein Interaction Assay: MCL-1/Noxa BH3 Peptide (MCL-1 Assay)).
T1 construct: gene MCL1
T1 sequence (Q07820 whole entry K194A/K197A/R201A, looked up): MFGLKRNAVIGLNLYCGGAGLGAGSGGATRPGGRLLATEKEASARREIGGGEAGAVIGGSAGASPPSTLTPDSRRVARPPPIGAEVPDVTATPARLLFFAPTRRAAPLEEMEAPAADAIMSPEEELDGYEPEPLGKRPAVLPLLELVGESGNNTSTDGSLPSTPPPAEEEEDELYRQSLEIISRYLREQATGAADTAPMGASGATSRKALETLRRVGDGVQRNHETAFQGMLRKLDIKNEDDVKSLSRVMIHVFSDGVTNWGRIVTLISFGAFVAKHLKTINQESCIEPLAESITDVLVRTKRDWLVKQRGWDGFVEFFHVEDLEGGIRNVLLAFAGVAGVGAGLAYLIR
Procedure: The dose-dependent inhibition by the compounds described in this invention of the interaction between MCL-1 and the BH3 domain of Noxa (both human) was determined using a steady state binding competition assay with time-resolved fluorescence energy transfer (TR-FRET) readout. […] The MBP-MCL-1 was purchased from Beryllium (Bedford, Mass., USA). […] The Noxa BH3-derived peptide can be obtained from e.g. Biosyntan (Berlin, Germany).

`CCc1c2c(nn1C)C(CCC1CCOCC1)OCCCCn1c(C(=O)O)c(CCCOc3cccc4cc(F)ccc34)c3ccc(Cl)c-2c31` (racemic) [US11440923, Example 60] and `CCc1c2c(nn1C)C(CCN1CCOCC1)OCCCCn1c(C(=O)O)c(CCCOc3cccc4cc(F)ccc34)c3ccc(Cl)c-2c31` (single isomer, unassigned) [US11440923, Example 23] are within 1.5-fold of each other in IC50: 0.69 nM for the first, 0.63 nM for the second.

First: CCc1c2c(nn1C)C1CCCCN1CCCCn1c(C(=O)O)c(CCCOc3cccc4ccccc34)c3ccc(Cl)c-2c31 (racemic) [US11440923, Example 102]
Second: CCc1c2c(nn1C)C(C(F)(F)F)OCCCCn1c(C(=O)O)c(CCCOc3cccc4ccccc34)c3ccc(Cl)c-2c31 (single isomer, unassigned; form 1) [US11440923, Example 33]
The IC50 of the first is 2.2-fold lower: 0.94 nM for the first, 2.1 nM for the second.

Going from `CCc1c2c(nn1C)C(CCC1CCOCC1)OCCCCn1c(C(=O)O)c(CCCOc3cccc4cc(F)ccc34)c3ccc(Cl)c-2c31` (single isomer, unassigned) [US11440923, Example 63] to `CCc1c2c(nn1C)[C@@H](CCN1CCOCC1)OCCCCn1c(C(=O)O)c(CCCOc3cccc4cc(F)ccc34)c3ccc(Cl)c-2c31` [US11440923, Example 48], the IC50 rises from 0.88 nM to 3.6 nM (4.1-fold).

`CCc1c2c(nn1C)C(CCN1CC(F)(F)C1)OCCCCn1c(C(=O)O)c(CCCOc3cccc4cc(F)ccc34)c3ccc(Cl)c-2c31` (single isomer, unassigned) [US11440923, Example 78] and `CCc1c2c(nn1C)C(CCOC)OCCCCn1c(C(=O)O)c(CCCOc3cccc4cc(F)ccc34)c3ccc(Cl)c-2c31` (single isomer, unassigned; form 1) [US11440923, Example 42] are within 1.5-fold of each other in IC50: 0.42 nM for the first, 0.33 nM for the second.

`CCC1OCCCCn2c(C(=O)O)c(CCCOc3cccc4ccccc34)c3ccc(Cl)c(c32)-c2c1nn(C)c2C` (single isomer, unassigned; form 1) [US11440923, Example 29] and `Cc1c2c(nn1C)C(C1CC1)OCCCCn1c(C(=O)O)c(CCCOc3cccc4ccccc34)c3ccc(Cl)c-2c31` (single isomer, unassigned; form 1) [US11440923, Example 35] are within 1.5-fold of each other in IC50: 1 nM for the first, 0.73 nM for the second.

First: CCc1c2c(nn1C)C(C1CC1)OCCCCn1c(C(=O)O)c(CCCOc3cccc4cc(F)ccc34)c3ccc(Cl)c-2c31 (single isomer, unassigned; form 1) [US11440923, Example 39]
Second: CCc1c2c(nn1C)C(CCOC)OCCCCn1c(C(=O)O)c(CCCOc3cccc4cc(F)ccc34)c3ccc(Cl)c-2c31 (single isomer, unassigned; form 2) [US11440923, Example 43]
The IC50 of the first is 120-fold lower: 0.72 nM for the first, 88 nM for the second.

`CCc1c2c(nn1C)C(CC(C)(C)O)OCCCCn1c(C(=O)O)c(CCCOc3cccc4cc(F)ccc34)c3ccc(Cl)c-2c31` (single isomer, unassigned; form 1) [US11440923, Example 53] and `CCc1c2c(nn1C)C(CCC(C)(C)O)OCCCCn1c(C(=O)O)c(CCCOc3cccc4cc(F)ccc34)c3ccc(Cl)c-2c31` (single isomer, unassigned; form 1) [US11440923, Example 75] are within 1.5-fold of each other in IC50: 0.41 nM for the first, 0.37 nM for the second.

`CCC1OCCCCn2c(C(=O)O)c(CCCOc3cccc4ccccc34)c3ccc(Cl)c(c32)-c2c1nn(C)c2C` (single isomer, unassigned; form 2) [US11440923, Example 30] and `Cc1c2c(nn1C)C(C1CC1)OCCCCn1c(C(=O)O)c(CCCOc3cccc4ccccc34)c3ccc(Cl)c-2c31` (single isomer, unassigned; form 2) [US11440923, Example 36] are within 1.5-fold of each other in IC50: 200 nM for the first, 280 nM for the second.

Compared with `CCc1c2c(nn1C)C(C(F)(F)F)OCCCCn1c(C(=O)O)c(CCCOc3cccc4ccccc34)c3ccc(Cl)c-2c31` (single isomer, unassigned; form 2) [US11440923, Example 34], `CCc1c2c(nn1C)C(C1CC1)OCCCCn1c(C(=O)O)c(CCCOc3cccc4cc(F)ccc34)c3ccc(Cl)c-2c31` (single isomer, unassigned; form 2) [US11440923, Example 40] is 7.7-fold lower in IC50: 370 nM for the first, 48 nM for the second.

Compared with `CCc1c2c(nn1C)C(CC(C)(C)O)OCCCCn1c(C(=O)O)c(CCCOc3cccc4cc(F)ccc34)c3ccc(Cl)c-2c31` (single isomer, unassigned; form 2) [US11440923, Example 54], `CCc1c2c(nn1C)C(CCC(C)(C)O)OCCCCn1c(C(=O)O)c(CCCOc3cccc4cc(F)ccc34)c3ccc(Cl)c-2c31` (single isomer, unassigned; form 2) [US11440923, Example 76] is 1.9-fold higher in IC50: 47 nM for the first, 90 nM for the second. The first is the more potent here.

Going from `Cc1c2c(nn1C)C(CCN1CCOCC1)OCCCCn1c(C(=O)O)c(CCCOc3cccc4cc(F)ccc34)c3ccc(Cl)c-2c31` (configuration not stated) [US11440923, Example 16] to `Cc1c2c(nn1C)C(CCN1CCOCC1)OCCCCn1c(C(=O)O)c(CCCOc3cccc4cc(F)ccc34)c3ccc(F)c-2c31` (configuration not stated) [US11440923, Example 19], the IC50 falls from 1.2 nM to 0.79 nM (1.5-fold).
